The nature of data set [1]: SABRE-SHEATH hyperpolarization, 13C polarization quantified at 1.4 T benchtop NMR. Format: physicochemical. How it is done: A previously reported setup and experimental protocol has been used to prepare high P13C of up to ≈14.5% of 30 mM [1-^13C]pyruvate in methanol, which was confirmed after transferring the HP samples from the polarizer into a 1.4 T benchtop ^1H/^13C NMR system. The mean of N=19 experiments from 9 samples measured on 5 different days under the same conditions was 8±2%. […] These hyperpolarization values correspond to ^13C enhancement ε13C of ≈75,000-fold. The optimal experimental parameters are obtained via sweeping the static magnetic field (optimum transfer field BT≈0.4 μT) and temperature (TT≈10° C.) using a p-H2 flow rate of 75 standard cubic centimeters per minute (scc/m), and ≈7 bar total pressure, FIGS. 4A-4B, respectively.
CD3OD is widely used as the SABRE-reaction-hosting solvent because it provides convenient means of attaining high-field NMR spectrometer lock. However, non-deuterated polarization media may be preferred for biomedical applications. For this reason, systematic relaxation dynamics studies were performed comparing CD3OD, CH3OH, and C2H5OH for SABRE-SHEATH [1-^13C]pyruvate hyperpolarization, investigating relevant parameters for these solvents and for fixed concentrations of pyruvate, SABRE catalyst, and DMSO (30 mM, 6 mM, and 40 mM, respectively). However, the ethanol sample was prepared with only 6 mM pyruvate and 10% H2O due to limited solubility. The optimal Br was similar in all investigated samples (≈0.4 μT, FIG. 4A). […] (FIG. 4B). Thus, all the experiments described below were performed using these optimized Br and Tr parameters.
Preparation of samples: Parahydrogen was enriched to >99.10% and filled into aluminum cylinders at 350 psi using a setup described previously. The SABRE samples were prepared in CD3OD (CAS: DLM-24-25), CH3OH (CAS: 67-56-1), or ethanol (CAS: 64-17-5) using the stated concentration of sodium pyruvate (in most cases 30 mM, natural abundance—CAS: 113-24-6; [1-^13C]-labeled—CAS: 490709-250 MG), an iridium catalyst at 6 mM concentration synthesized as described previously, doped with 40 mM dimethyl sulfoxide (DMSO) to block one active center of the catalyst and to avoid pyruvate from binding to the catalyst at two sites. Oxygen was removed from the samples by guiding argon gas at approximately ambient pressure through the samples for ˜1 min. Also, oxygen was removed from all solvents used for the preparation of the samples (methanol or ethanol) or for the precipitation of pyruvate (ethyl acetate (EtAc), room temperature, CAS: 141-78-6) prior to mixing them to the catalyst substrate solutions. For the SABRE experiments, the samples were filled into medium wall, or in case of precipitation studies, into regular wall NMR tubes (SKU: WG-1000-8, outer diameter 5 mm, inner diameter 4 mm and length 8 inches). Note that the total volume of the catalyst-substrate sample was 600 μL (in the baseline and solvent study) or 100 μL in experiments were precipitation and phase separation were performed. In case of dissolution SABRE, 300 μL of room-temperature H2O (HPLC grade-submicron filtered) or D2O (CAS: 7789-20-0) were added.
SABRE hyperpolarization setup: The experimental setup has been used previously but will be described in much greater detail elsewhere. Briefly, it consisted of a 3-layer mu-metal of 3″ I.D. and 9″ DEPTH to shield external magnetic fields (Magnetic Shield Corporation, ZG-203), combined with a custom-made solenoid to generate a static magnetic field, B0, of ˜300 nT (28 AWG wire, 650 windings, 7″ homogeneous length). Note that this coil provided a constant magnetic field here (5 VDC power supply connected to the solenoid via a resistor board to regulate the current and effectively set the magnetic field). […]

Data set [2] can be described thus: Precipitation and syringe/cotton filtering of HP pyruvate at 10 mT. The following applies: 4.5 mL EtAc, filter at 10 mT, 1 mL H2O, 90-100 s procedure, repeated three times. Format: physicochemical. How it is done: As described above, filtering of non-hyperpolarized pyruvate from the precipitated solutions was tested using in-line syringe filters (FIGS. 9A-9C), and the obtained solutions of supernatant and dissolved microcrystals were analyzed with high resolution NMR. Cotton filters were also used as a performance metric for the syringe filters. Each sample was SABRE-SHEATH-polarized as described previously for three times to quantify the mean base-line hyperpolarization before precipitation (for this batch of samples, P13C=10±1% in CH3OH). Because a short lifetime of ^13C magnetization was expected at ultralow field, the precipitation procedure was performed at an elevated field of 10 mT (see setup described in section 5). At this field, proton and ^13C Zeeman levels are separated by >350 kHz, i.e., an order of magnitude greater than the dipolar spin-spin couplings present in the solid state. To this end, after the hyperpolarization procedure was completed, the sample was rapidly removed from the 0.30 μT field, depressurized, and filled into a 10-mL plastic syringe held at a 10 mT field mounted to a Luer-locked filter. After depressurization (˜10-15 s after hyperpolarization) 4.5 mL EtAc was added, the solution was stirred manually, and the filtration was started, taking a total of about 1 min following hyperpolarization. […]

Several values for one entry are separate records, joined by “and”; a condition that tells them apart may be missing. Equal entries are not always repeated.

In the case of `CC(=O)[13C](=O)O` [[1-^13C]pyruvate], the “fold lower P13C compared to CH3OH and CD3OD” value in data set [1] (6 mM in 90% C2H5OH + 10% H2O) came to 1.4 fold. Besides, the P13C in data set [1] (30 mM in CD3OD, representative polarization build-up at 0.4 μT) is 8.5±0.1%; in data set [1] (30 mM in CH3OH, representative polarization build-up at 0.4 μT), 7.8±0.1%; in data set [1] (60 mM in CH3OH, 6 mM catalyst, p-H2 80 scc/m), 3.7±0.06%. Also, the “P13C, mean” value in data set [1] (30 mM in methanol, N=19 experiments from 9 samples on 5 days, inter-day mean with s.d.) is on record as 8±2%. For the same compound, the “P13C, maximum” value in data set [1] (30 mM in methanol, SABRE-SHEATH, detected at 1.4 T) was “≈ 14.5% and 14.5%”. Moreover, in data set [1] (in CH3OH, batch used for filtering tests), the “P13C, mean base-line before precipitation” value is listed as 10±1%. For the same compound, the “13C enhancement ε13C” value in data set [1] (in methanol, vs thermal polarization at 1.4 T) was “≈ 75,000 fold”. Further, in data set [2], the “HP 13C signal after precipitation and filtering” value is “no HP ^13C signal was observed”.

(Values after patent US20260048155A1, “BIOCOMPATIBLE PARAHYDROGEN HYPERPOLARIZED SOLUTIONS BY PRECIPITATION AND RE-DISSOLUTION” (North Carolina State University, priority 2022, published 2026).)
